Reference: patent publication US9815843B2, “Compound, photosensitive resin composition comprising the same, and color filter” (Samsung SDI Co., Ltd., priority 2015, dated 2017)

Assay: Solubility measurement in dilution solvent (PGMEA)
Format: physicochemical
Details: 0.5 g compound, 25° C., 100 rpm, one hour
Description: A dilution solvent (PGMEA) is respectively added to 0.5 g of the compounds according to Synthesis Examples 8 to 17 and Comparative Synthesis Examples 1 and 2, and each solution is stirred with a mixrotar (MIXROTAR VMR-5, Iuchi Seieido Co., Ltd.) at 25° C. and 100 rpm for one hour.
Reference for Solubility Evaluation
Greater than or equal to 10 wt % of a compound (a solute) is dissolved based on the total amount of a dilution solvent: ∘
Greater than or equal to 5 wt % but less than 10 wt % of a compound (a solute) is dissolved based on the total amount of a dilution solvent: Δ
Less than 5 wt % of a compound (a solute) is dissolved based on the total amount of a dilution solvent: X

For `CCCCCOc1c(Cl)c(Cl)c2c(c1Cl)C1=NC/2=N\c2c3c(Cl)c(Cl)c(OCCCCC)c(Cl)c3c3[n]2[Zn][n]2/c(c4c(Cl)c(Cl)c(OCCCCC)c(Cl)c4/c2=N/1)=N\C1=NC(=N\3)/c2c(Cl)c(Cl)c(OCCCCC)c(Cl)c21` [Comparative Synthesis Example 2], the Solubility was “Δ (Greater than or equal to 5 wt % but less than 10 wt % of a compound (a solute) is dissolved based on the total amount of a dilution solvent)”.
